From patent US8557813B2, “2-benzylpyridazinone derivatives as met kinase inhibitors” (Merck Patent GmbH, priority 2007, dated 2013) come the findings set out here.

Each structure is given as a SMILES string. Where a name gives a salt, the structure may show the parent alone.

Experiment [1] deals with T1, Met kinase (Homo sapiens, UniProt P08581). As to the kind of experiment: Met kinase inhibition, cell assay. In kind it is cell-based.
Experiment [2] concerns the target T1, Met kinase. The experiment in a line: Met kinase inhibition, enzyme assay (flashplate method). Also noted: 6His (N); purchased Upstate 14-526; host or cells: Sf21 insect cells (S. frugiperda), baculovirus. In kind it is biochemical. An excerpt:
According to the manufacturer's data (Met, active, upstate, catalogue No. 14-526), Met kinase is expressed for the purposes of protein production in insect cells (Sf21; S. frugiperda) and subsequent affinity-chromatographic purification as “N-terminal 6His-tagged” recombinant human protein in a baculovirus expression vector.
The test plates used are 96-well Flashplate® microtitre plates from Perkin Elmer (Cat. No. SMP200). The components of the kinase reaction described below are pipetted into the assay plate. The Met kinase and the substrate poly Ala-Glu-Lys-Tyr, (pAGLT, 6:2:5:1), are incubated for 3 hrs at room temperature with radioactively labelled ^33P-ATP in the presence and absence of test substances in a total volume of 100 μl. The reaction is terminated using 150 μl of a 60 mM EDTA solution. After incubation for a further 30 min at room temperature, the supernatants are filtered off with suction, and the wells are washed three times with 200 μl of 0.9% NaCl solution each time. The measurement of the bound radioactivity is carried out by means of a scintillation measuring instrument (Topcount NXT, Perkin-Elmer).
The full value used is the inhibitor-free kinase reaction. This should be approximately in the range 6000-9000 cpm. The pharmacological zero value used is staurosporin in a final concentration of 0.1 mM. The inhibitory values (IC50) are determined using the RS1_MTS program.
Kinase Reaction Conditions Per Well:
10 μl of substance to be tested in assay buffer with 10% of DMSO
10 μl of ATP (final concentration 1 μM cold, 0.35 μCi of ^33P-ATP)
50 μl of Met kinase/substrate mixture in assay buffer; • (10 ng of enzyme/well, 50 ng of pAGLT/well) • Solutions Used: • Assay buffer: • 50 mM HEPES • 3 mM magnesium chloride • 3 μM sodium orthovanadate • 3 mM manganese(II) chloride • 1 mM dithiothreitol (DTT) • pH=7.5 (to be set using sodium hydroxide) • Stop Solution: • 60 mM Titriplex III (EDTA) • ^33P-ATP: Perkin-Elmer; • Met kinase: Upstate, Cat. No. 14-526, Stock 1 μg/10 μl; spec. activity 954 U/mg; • Poly-Ala-Glu-Lys-Tyr, 6:2:5:1: Sigma Cat. No. P1152

Another experiment deals with TPR-Met/NIH3T3 cells. The experiment in a line: In-vivo test, TPR-Met/NIH3T3 tumor model in mice. The conditions noted are these: female Balb/C mice, s.c. TPR-Met/NIH3T3 tumors, 200 mg/kg daily by gastric tube, 9 days, tumor volume. Here is the method: Experimental Procedure: Female Balb/C mice (breeder: Charles River Wiga) were 5 weeks old on arrival. They were acclimatized to our keeping conditions for 7 days. Each mouse was subsequently injected subcutaneously in the pelvic area with 4 million TPR-Met/NIH3T3 cells in 100 μl of PBS (without Ca++ and Mg++). […] 100 μl of vehicle (0.25% methylcellulose/100 mM acetate buffer, pH 5.5) were administered daily to the control group, and 200 mg/kg of “A56” or “A91” dissolved in the vehicle (volume likewise 100 μl/animal) were administered daily to the treatment groups, in each case by gastric tube.
Measurement of the tumor volume: The length (L) and breadth (B) were measured using a Vernier calliper, and the tumor volume was calculated from the formula L×B×B/2.
Keeping conditions: 4 or 5 animals per cage, feeding with commercial mouse food (Sniff).

T1 sequence (P08581 25-1390): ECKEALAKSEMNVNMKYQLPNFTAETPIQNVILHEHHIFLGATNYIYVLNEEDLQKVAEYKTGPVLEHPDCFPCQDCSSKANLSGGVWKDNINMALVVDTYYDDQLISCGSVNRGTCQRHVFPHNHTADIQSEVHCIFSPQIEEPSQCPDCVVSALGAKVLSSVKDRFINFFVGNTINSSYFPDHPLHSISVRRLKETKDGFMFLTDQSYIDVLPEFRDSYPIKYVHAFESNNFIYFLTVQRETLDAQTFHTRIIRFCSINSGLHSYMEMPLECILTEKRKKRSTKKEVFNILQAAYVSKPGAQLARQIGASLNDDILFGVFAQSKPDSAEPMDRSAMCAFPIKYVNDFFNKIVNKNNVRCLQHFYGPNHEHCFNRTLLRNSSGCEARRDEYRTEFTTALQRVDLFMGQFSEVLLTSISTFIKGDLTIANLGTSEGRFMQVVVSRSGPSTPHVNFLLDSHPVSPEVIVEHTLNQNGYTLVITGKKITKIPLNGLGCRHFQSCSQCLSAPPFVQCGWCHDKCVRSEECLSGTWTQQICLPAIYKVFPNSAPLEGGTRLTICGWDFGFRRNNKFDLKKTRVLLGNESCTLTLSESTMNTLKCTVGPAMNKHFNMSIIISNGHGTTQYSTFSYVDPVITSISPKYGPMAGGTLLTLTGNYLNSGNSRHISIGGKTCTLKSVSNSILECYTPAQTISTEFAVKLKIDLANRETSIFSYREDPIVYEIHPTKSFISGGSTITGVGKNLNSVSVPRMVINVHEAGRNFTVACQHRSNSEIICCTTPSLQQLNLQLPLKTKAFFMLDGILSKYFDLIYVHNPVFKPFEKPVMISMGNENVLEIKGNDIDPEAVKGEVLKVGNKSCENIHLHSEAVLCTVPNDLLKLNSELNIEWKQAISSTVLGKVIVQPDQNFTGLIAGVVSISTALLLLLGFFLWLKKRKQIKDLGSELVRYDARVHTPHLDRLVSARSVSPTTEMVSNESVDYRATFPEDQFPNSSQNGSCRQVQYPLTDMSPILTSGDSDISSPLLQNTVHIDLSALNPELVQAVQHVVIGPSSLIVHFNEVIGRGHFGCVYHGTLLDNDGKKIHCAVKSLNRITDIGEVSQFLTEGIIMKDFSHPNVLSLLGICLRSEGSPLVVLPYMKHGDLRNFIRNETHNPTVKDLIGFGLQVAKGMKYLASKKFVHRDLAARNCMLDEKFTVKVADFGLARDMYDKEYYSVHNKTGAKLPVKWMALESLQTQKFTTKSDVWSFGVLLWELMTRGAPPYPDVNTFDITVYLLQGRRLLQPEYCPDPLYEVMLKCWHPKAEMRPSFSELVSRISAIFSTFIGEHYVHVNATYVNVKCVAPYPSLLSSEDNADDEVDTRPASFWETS

Regarding `O=c1ccc(C2CCC2)nn1Cc1cccc(-c2ncc(-c3cnn(CCN4CCCC4)c3)cn2)c1` [Compound A15, 6-cyclobutyl-2-(3-{5-[1-(2-pyrrolidin-1-ylethyl)-1H-pyrazol-4-yl]pyrimidin-2-yl}benzyl)-2H-pyridazin-3-one], the IC50 against Met kinase [1] and against Met kinase [2] was 1 to 100 nM throughout.

In the case of `Cc1cnc(-c2cccc(Cn3nc(C4CC4)ccc3=O)c2)nc1` [Compound A4, 6-cyclopropyl-2-[3-(5-methylpyrimidin-2-yl)benzyl]-2H-pyridazin-3-one], the IC50 fell in the range of 100 to 10000 nM on Met kinase [1] and 1 to 100 nM at Met kinase [2].

In the case of `O=c1ccc(C2CC2)nn1Cc1cccc(-c2ncc(-c3cnn(CCN4CCOCC4)c3)cn2)c1` [Compound A3, 6-cyclopropyl-2-(3-{5-[1-(2-morpholin-4-ylethyl)-1H-pyrazol-4-yl]-pyrimidin-2-yl}benzyl)-2H-pyridazin-3-one], the IC50 against Met kinase [1] and against Met kinase [2] was 1 to 100 nM each time.

On to `CN1CCC(Oc2cnc(-c3cccc(Cn4nc(C5CC5)ccc4=O)c3)nc2)CC1` [Compound A9, 6-cyclopropyl-2-{3-[5-(1-methylpiperidin-4-yloxy)pyrimidin-2-yl]benzyl}-2H-pyridazin-3-one], for which the IC50 against Met kinase [1] and against Met kinase [2] was 1 to 100 nM each time.

Regarding `O=c1ccc(C2CC2)nn1Cc1cccc(-c2ncc(OC3CCNCC3)cn2)c1` [Compound A11, 6-cyclopropyl-2-{3-[5-(piperidin-4-yloxy)pyrimidin-2-yl]benzyl}-2H-pyridazin-3-one], the figures for the IC50 at Met kinase [1] and against Met kinase [2] were 100 to 10000 nM and 1 to 100 nM, respectively.

In the case of `Nc1cnc(-c2cccc(Cn3nc(C4CC4)ccc3=O)c2)nc1` [Compound A18, 2-[3-(5-aminopyrimidin-2-yl)benzyl]-6-cyclopropyl-2H-pyridazin-3-one], in the experiment with TPR-Met/NIH3T3 cells, the antitumoral action entry is “significant antitumoral action”. For the same compound, the IC50 against Met kinase [1] and on Met kinase [2] was 100 to 10000 nM in each case.

With `O=c1ccc(C2CC2)nn1Cc1cccc(-c2ncc(Br)cn2)c1` [Compound A1, 2-[3-(5-bromopyrimidin-2-yl)benzyl]-6-cyclopropyl-2H-pyridazin-3-one], the figures for the IC50 at Met kinase [1] and on Met kinase [2] were 100 to 10000 nM and 1 to 100 nM, respectively.

`CN(C)CCCOc1cnc(-c2cccc(Cn3nc(C4CC4)ccc3=O)c2)nc1` [Compound A8, 6-cyclopropyl-2-{3-[5-(3-dimethylaminopropoxy)pyrimidin-2-yl]benzyl}-2H-pyridazin-3-one]: the IC50 on Met kinase [1] and on Met kinase [2] was 1 to 100 nM throughout.

For `O=c1ccc(C2CC2)nn1Cc1cccc(-c2ncc(-c3cnn(C4CCNCC4)c3)cn2)c1` [Compound A5, 6-cyclopropyl-2-{3-[5-(1-piperidin-4-yl-1H-pyrazol-4-yl)-pyrimidin-2-yl]benzyl}-2H-pyridazin-3-one], the IC50 against Met kinase [1] and against Met kinase [2] was 1 to 100 nM each time.

For `CC(C)c1ccc(=O)n(Cc2cccc(-c3ncc(-c4cnn(CCN5CCOCC5)c4)cn3)c2)n1` [Compound A13, 6-isopropyl-2-(3-{5-[1-(2-morpholin-4-ylethyl)-1H-pyrazol-4-yl]pyrimidin-2-yl}benzyl)-2H-pyridazin-3-one], the IC50 lay in the range of 100 to 10000 nM on Met kinase [1] and 1 to 100 nM at Met kinase [2].

In the case of `CN1CCN(c2cnc(-c3cccc(Cn4nc(C5CC5)ccc4=O)c3)nc2)CC1` [Compound A12, 6-cyclopropyl-2-{3-[5-(4-methylpiperazin-1-yl)pyrimidin-2-yl]benzyl}-2H-pyridazin-3-one], the IC50 on Met kinase [1] and against Met kinase [2] was 1 to 100 nM each time.

In the case of `Cc1ccc(=O)n(Cc2cccc(-c3ncc(-c4cnn(C5CCNCC5)c4)cn3)c2)n1` [Compound A6, 6-methyl-2-{3-[5-(1-piperidin-4-yl-1H-pyrazol-4-yl)pyrimidin-2-yl]benzl}-2H-pyridazin-3-one], the IC50 against Met kinase [1] fell in the range of 100 to 10000 nM; against Met kinase [2] it was 1 to 100 nM.

Turning to `O=c1ccc(C2CC2)nn1Cc1cccc(-c2ncc(-c3cnn(CCN4CCCC4)c3)cn2)c1` [Compound A2, 6-cyclopropyl-2-(3-{5-[1-(2-pyrrolidin-1-ylethyl)-1H-pyrazol-4-yl]pyrimidin-2-yl}benzyl)-2H-pyridazin-3-one], the IC50 against Met kinase [1] and against Met kinase [2] was 1 to 100 nM each time.

With `Cc1nc(-c2cccc(Cn3nc(C4CC4)ccc3=O)c2)no1` [Compound A7, 6-cyclopropyl-2-[3-(5-methyl-1,2,4-oxadiazol-3-yl)benzyl]-2H-pyridazin-3-one], the IC50 on Met kinase [1] is greater than 10000 nM; at Met kinase [2], 100 to 10000 nM.

In the case of `O=c1cccnn1Cc1cccc(-c2ncc(-c3cnn(CCN4CCOCC4)c3)cn2)c1` [Compound A14, 2-(3-{5-[1-(2-morpholin-4-ylethyl)-1H-pyrazol-4-yl]pyrimidin-2-yl}benzyl)-2H-pyridazin-3-one], the half-maximal inhibitory concentration (IC50) against Met kinase [1] fell in the range of 100 to 10000 nM; against Met kinase [2] it was 1 to 100 nM.

As for `CC(C)c1ccc(=O)n(Cc2cccc(-c3ncc(OCCCN(C)C)cn3)c2)n1` [Compound A10, 2-{3-[5-(3-dimethylaminopropoxy)pyrimidin-2-yl]benzyl}-6-isopropyl-2H-pyridazin-3-one formate], the IC50 lay within 100 to 10000 nM against Met kinase [1] and 1 to 100 nM against Met kinase [2].
